In PubChem BioAssay (NCI):
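Interpolation was linear, between the two tested concentrations surrounding the appropriate level; five concentrations were tested over 48 hours in 96-well plates. Abbreviation: GI50, concentration required for 50% inhibition of growth. TGI marks complete inhibition of growth.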

Assays:
Assay in all cases: inhibition of tumour cell growth, NCI panel, 48 h
SW-620 colon = system: SW-620 colon
RPMI-8226 leukemia = system: RPMI-8226 leukemia
SF-539 CNS = system: SF-539 CNS
CCRF-CEM leukemia = system: CCRF-CEM leukemia
OVCAR-8 ovarian = system: OVCAR-8 ovarian
NCI-H460 lung = system: NCI-H460 lung
786-0 renal = system: 786-0 renal
HCT-116 colon = system: HCT-116 colon
SNB-75 CNS = system: SNB-75 CNS
HT29 colon = system: HT29 colon
OVCAR-5 ovarian = system: OVCAR-5 ovarian
MOLT-4 leukemia = system: MOLT-4 leukemia
SK-MEL-28 melanoma = system: SK-MEL-28 melanoma
NCI-H522 lung = system: NCI-H522 lung
SN12C renal = system: SN12C renal
HL-60(TB) leukemia = system: HL-60(TB) leukemia
TK-10 renal = system: TK-10 renal
HS 578T breast = system: HS 578T breast
SF-268 CNS = system: SF-268 CNS
SR leukemia = system: SR leukemia
SK-MEL-2 melanoma = system: SK-MEL-2 melanoma
K-562 leukemia = system: K-562 leukemia
NCI-H226 lung = system: NCI-H226 lung
SF-295 CNS = system: SF-295 CNS
U251 CNS = system: U251 CNS
OVCAR-3 ovarian = system: OVCAR-3 ovarian
NCI-H23 lung = system: NCI-H23 lung
PC-3 prostate = system: PC-3 prostate
HOP-62 NSCLC = system: HOP-62 NSCLC
A549 NSCLC = system: A549 NSCLC
SK-MEL-5 melanoma = system: SK-MEL-5 melanoma
UACC-257 melanoma = system: UACC-257 melanoma
MALME-3M melanoma = system: MALME-3M melanoma
KM12 colon = system: KM12 colon
HCC-2998 colon = system: HCC-2998 colon
MCF7 breast = system: MCF7 breast
HCT-15 colon = system: HCT-15 colon
NCI/ADR-RES ovarian = system: NCI/ADR-RES ovarian
M14 melanoma = system: M14 melanoma
LOX IMVI melanoma = system: LOX IMVI melanoma
UO-31 renal = system: UO-31 renal
BT-549 breast = system: BT-549 breast
HOP-92 NSCLC = system: HOP-92 NSCLC
MDA-MB-435 = system: MDA-MB-435
ACHN renal = system: ACHN renal
COLO 205 colon = system: COLO 205 colon
SK-OV-3 ovarian = system: SK-OV-3 ovarian
OVCAR-4 ovarian = system: OVCAR-4 ovarian
UACC-62 melanoma = system: UACC-62 melanoma
DU-145 prostate = system: DU-145 prostate
MDA-MB-231 breast = system: MDA-MB-231 breast
SNB-19 CNS = system: SNB-19 CNS
A498 renal = system: A498 renal
EKVX NSCLC = system: EKVX NSCLC
IGROV1 ovarian = system: IGROV1 ovarian
CAKI-1 renal = system: CAKI-1 renal

Structure (SMILES): Cc1ncc([N+](=O)[O-])n1CCNCCCn1ccnc1[N+](=O)[O-]
- TGI (SW-620 colon): > 100 µM
- TGI (RPMI-8226 leukemia): > 100 µM
- TGI (SF-539 CNS): > 100 µM
- TGI (CCRF-CEM leukemia): > 100 µM
- TGI (OVCAR-8 ovarian): > 100 µM
- TGI (NCI-H460 lung): > 100 µM
- TGI (786-0 renal): > 100 µM
- TGI (HCT-116 colon): > 100 µM
- TGI (SNB-75 CNS): > 100 µM
- TGI (HT29 colon): > 100 µM
- TGI (OVCAR-5 ovarian): > 100 µM
- TGI (MOLT-4 leukemia): > 100 µM
- TGI (SK-MEL-28 melanoma): > 100 µM
- TGI (NCI-H522 lung): > 100 µM
- TGI (SN12C renal): > 100 µM
- TGI (HL-60(TB) leukemia): > 100 µM
- TGI (TK-10 renal): > 100 µM
- TGI (HS 578T breast): > 100 µM
- TGI (SF-268 CNS): > 100 µM
- TGI (SR leukemia): > 100 µM
- TGI (SK-MEL-2 melanoma): > 100 µM
- TGI (K-562 leukemia): > 100 µM
- TGI (NCI-H226 lung): > 100 µM
- TGI (SF-295 CNS): > 100 µM
- TGI (U251 CNS): > 100 µM
- TGI (OVCAR-3 ovarian): > 100 µM
- TGI (NCI-H23 lung): > 100 µM
- TGI (PC-3 prostate): > 100 µM
- TGI (HOP-62 NSCLC): > 100 µM
- TGI (A549 NSCLC): > 100 µM
- TGI (SK-MEL-5 melanoma): > 100 µM
- TGI (UACC-257 melanoma): > 100 µM
- TGI (MALME-3M melanoma): > 100 µM
- TGI (KM12 colon): > 100 µM
- TGI (HCC-2998 colon): > 100 µM
- TGI (MCF7 breast): > 100 µM
- TGI (HCT-15 colon): > 100 µM

Structure (SMILES): COc1cc(C2C3=C(COC3=O)Nc3c2ccc2c3CCCC2)cc2c1OCO2 (stereo not given)
- GI50 (SW-620 colon): 0.0399 µM
- TGI (SW-620 colon): > 100 µM
- GI50 (RPMI-8226 leukemia): 0.0479 µM
- TGI (RPMI-8226 leukemia): 75.3 µM
- GI50 (SF-539 CNS): 0.0331 µM
- TGI (SF-539 CNS): 13.4 µM
- GI50 (CCRF-CEM leukemia): 0.0367 µM
- TGI (CCRF-CEM leukemia): > 100 µM
- GI50 (OVCAR-8 ovarian): 0.045 µM
- TGI (OVCAR-8 ovarian): 20.2 µM
- GI50 (NCI-H460 lung): 0.0353 µM
- TGI (NCI-H460 lung): 15.7 µM
- GI50 (NCI/ADR-RES ovarian): 0.0391 µM
- TGI (NCI/ADR-RES ovarian): 19.1 µM
- GI50 (M14 melanoma): 0.033 µM
- TGI (M14 melanoma): 67.4 µM
- GI50 (786-0 renal): 0.0757 µM
- TGI (786-0 renal): 14.4 µM
- GI50 (HCT-116 colon): 0.039 µM
- TGI (HCT-116 colon): 3.29 µM
- GI50 (SNB-75 CNS): 0.0251 µM
- TGI (SNB-75 CNS): 14.5 µM
- GI50 (HT29 colon): 0.0357 µM
- TGI (HT29 colon): 3.97 µM
- GI50 (LOX IMVI melanoma): 0.0652 µM
- TGI (LOX IMVI melanoma): > 100 µM
- GI50 (UO-31 renal): 0.337 µM
- TGI (UO-31 renal): > 100 µM
- GI50 (BT-549 breast): 0.118 µM
- TGI (BT-549 breast): 30.5 µM
- GI50 (OVCAR-5 ovarian): 0.0897 µM
- TGI (OVCAR-5 ovarian): > 100 µM
- GI50 (MOLT-4 leukemia): 0.13 µM
- TGI (MOLT-4 leukemia): > 42.4 µM
- GI50 (HOP-92 NSCLC): 0.364 µM
- TGI (HOP-92 NSCLC): 20.8 µM
- GI50 (SK-MEL-28 melanoma): 0.0547 µM
- TGI (SK-MEL-28 melanoma): > 100 µM
- GI50 (MDA-MB-435): 0.0199 µM
- TGI (MDA-MB-435): 0.0497 µM
- GI50 (NCI-H522 lung): 0.0239 µM
- TGI (NCI-H522 lung): 1.46 µM
- GI50 (SN12C renal): 0.0723 µM
- TGI (SN12C renal): > 100 µM
- GI50 (HL-60(TB) leukemia): 0.0316 µM
- TGI (HL-60(TB) leukemia): 0.09 µM
- GI50 (TK-10 renal): 14.9 µM
- TGI (TK-10 renal): > 94.3 µM
- GI50 (ACHN renal): 0.134 µM
- TGI (ACHN renal): > 100 µM
- GI50 (HS 578T breast): 0.0367 µM
- TGI (HS 578T breast): 45.5 µM
- GI50 (SF-268 CNS): 0.107 µM
- TGI (SF-268 CNS): 19.6 µM
- GI50 (SR leukemia): 0.0354 µM
- TGI (SR leukemia): > 21 µM
- GI50 (COLO 205 colon): 0.0322 µM
- TGI (COLO 205 colon): 0.0942 µM
- GI50 (SK-OV-3 ovarian): 0.0311 µM
- TGI (SK-OV-3 ovarian): 0.103 µM
- GI50 (OVCAR-4 ovarian): 0.121 µM
- TGI (OVCAR-4 ovarian): > 100 µM
- GI50 (UACC-62 melanoma): 0.0462 µM
- TGI (UACC-62 melanoma): > 100 µM
- GI50 (DU-145 prostate): 0.0416 µM
- TGI (DU-145 prostate): 0.505 µM
- GI50 (SK-MEL-2 melanoma): 0.068 µM
- TGI (SK-MEL-2 melanoma): 27.4 µM
- GI50 (MDA-MB-231 breast): 0.0779 µM
- GI50 (SNB-19 CNS): 0.0531 µM
- TGI (SNB-19 CNS): > 77.4 µM
- GI50 (K-562 leukemia): 0.0351 µM
- TGI (K-562 leukemia): > 100 µM
- GI50 (NCI-H226 lung): 0.0343 µM
- TGI (NCI-H226 lung): 0.185 µM
- GI50 (SF-295 CNS): 0.0323 µM
- TGI (SF-295 CNS): 35.5 µM
- GI50 (A498 renal): 0.0265 µM
- TGI (A498 renal): 0.175 µM
- GI50 (U251 CNS): 0.0418 µM
- TGI (U251 CNS): 14.9 µM
- GI50 (EKVX NSCLC): 0.0908 µM
- TGI (EKVX NSCLC): > 100 µM
- GI50 (IGROV1 ovarian): 0.0765 µM
- TGI (IGROV1 ovarian): > 100 µM
- GI50 (OVCAR-3 ovarian): 0.0233 µM
- TGI (OVCAR-3 ovarian): 0.0518 µM
- GI50 (NCI-H23 lung): 0.0439 µM
- TGI (NCI-H23 lung): 13.7 µM
- GI50 (PC-3 prostate): 0.0387 µM
- TGI (PC-3 prostate): > 100 µM
- GI50 (HOP-62 NSCLC): 0.0426 µM
- TGI (HOP-62 NSCLC): 18.7 µM
- GI50 (A549 NSCLC): 0.0444 µM
- TGI (A549 NSCLC): > 89.3 µM
- GI50 (SK-MEL-5 melanoma): 0.0381 µM
- TGI (SK-MEL-5 melanoma): 0.199 µM
- GI50 (MALME-3M melanoma): 81.5 µM
- TGI (MALME-3M melanoma): > 100 µM
- GI50 (CAKI-1 renal): 0.0775 µM
- TGI (CAKI-1 renal): > 100 µM
- GI50 (KM12 colon): 0.0356 µM
- TGI (KM12 colon): 0.412 µM
- GI50 (HCC-2998 colon): 0.052 µM
- GI50 (MCF7 breast): 0.0352 µM
- TGI (MCF7 breast): 8.74 µM
- GI50 (HCT-15 colon): 0.0432 µM
- TGI (HCT-15 colon): > 100 µM
